Experimental findings from patent publication US12252524B2, “GIP/GLP1 co-agonist compounds” (Eli Lilly and Company, priority 2018, dated 2025) are described below.

Test [1] concerns the target T1, human GIP receptor (Homo sapiens, UniProt P48546).
T1 construct: expressed in transfected cells; crude membranes
T1 sequence (P48546 22-466): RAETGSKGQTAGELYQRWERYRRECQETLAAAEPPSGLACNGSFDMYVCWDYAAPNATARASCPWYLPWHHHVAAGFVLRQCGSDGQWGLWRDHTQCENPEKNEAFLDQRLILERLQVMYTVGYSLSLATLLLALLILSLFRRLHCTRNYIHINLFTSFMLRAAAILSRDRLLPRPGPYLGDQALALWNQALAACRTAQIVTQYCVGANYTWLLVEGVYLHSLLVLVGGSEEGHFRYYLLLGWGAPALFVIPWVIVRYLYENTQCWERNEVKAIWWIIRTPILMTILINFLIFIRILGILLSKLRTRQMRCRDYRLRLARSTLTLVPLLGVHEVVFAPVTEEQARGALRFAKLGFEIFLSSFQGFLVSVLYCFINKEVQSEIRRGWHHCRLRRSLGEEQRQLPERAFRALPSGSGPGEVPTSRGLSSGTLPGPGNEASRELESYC
Description: [125I]-GIP binding (SPA), human GIP receptor. As to conditions: read-out: hGIPR Ki, nM (SEM, n).

For test [2], the target named is T2, human Gcg receptor (Homo sapiens, UniProt P47871).
T2 construct: expressed in transfected cells; crude membranes
The test is described as follows: [125I]-Glucagon binding (SPA), human Gcg receptor. As to conditions: read-out: hGLcgR Ki, nM (SEM, n). Summed up: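 Crude membranes from cells expressing the receptor, prepared by hypotonic lysis in 50 mM Tris HCl pH 7.5 with protease inhibitors, homogenization and differential centrifugation, were used in a WGA-bead SPA. Binding buffer: 25 mM HEPES pH 7.4, 2.5 mM CaCl2, 1 mM MgCl2, bacitracin, Tween-20.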

The target of test [3] is human GLP-1 receptor (GLP-1R) (Homo sapiens, UniProt P43220). The test is described as follows: cAMP pharmacological functional assay in presence of casein, hGLP-1R. The class given is cell-based. As to conditions: HEK293 cells expressing hGLP-1R, 0.1% Casein, geometric mean; read-out: hGLP1R cAMP Rel EC50 nM (SEM, n).
Test [4] concerns the target human GLP-1R (Homo sapiens, UniProt P43220). The test is described as follows: [125I]-GLP-1 binding (SPA), human GLP-1 receptor. The arrangement: expressed in transfected cells; crude membranes. The conditions noted are these: read-out: hGLP1R Ki, (nM) (SEM, n). The method, boiled down: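 Frozen cell pellets are lysed on ice in hypotonic Tris buffer, pH 7.5, homogenized, and centrifuged to a membrane pellet resuspended at about 1 to 3 mg/mL. Binding is then measured in HEPES-based buffer at pH 7.4, and curves are fitted to give IC50 and Ki.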

In test [5] the target is T3, gastric inhibitory peptide receptor (GIPR) (Homo sapiens, UniProt P48546).
T3 sequence (P48546 22-466): T1 sequence (P48546 22-466)
Description: cAMP pharmacological functional assay in presence of casein, hGIPR. The class given is cell-based. The conditions noted are these: HEK293 cells expressing hGIPR, 0.1% Casein, geometric mean; read-out: hGIPR cAMP Rel EC50 nM (SEM, n).

SMILES strings stand for the structures. Numbered stars: 1 amine (or outer) side, 2 acyl side, 3 side chain; on linkers, the order of the positions; unused ones are H or OH. Square brackets hold non-standard residues; d marks the D form. Side chains are listed from the residue outwards. Peptide text beside a SMILES is read from it. * marks the point of attachment. C20 diacid = O=C(O)CCCCCCCCCCCCCCCCCCC(=O)*; αMePhe(2-F) = C[C@](N)(Cc1ccccc1F)C(=O)O; γGlu = O=C(O)[C@H](CCC(=O)[*:2])N[*:1]; αMeL = CC(C)C[C@](C)(N)C(=O)O; AEEA = NCCOCCOCC(=O)O; Aib = CC(C)(N)C(=O)O

T2 sequence (P47871 26-477): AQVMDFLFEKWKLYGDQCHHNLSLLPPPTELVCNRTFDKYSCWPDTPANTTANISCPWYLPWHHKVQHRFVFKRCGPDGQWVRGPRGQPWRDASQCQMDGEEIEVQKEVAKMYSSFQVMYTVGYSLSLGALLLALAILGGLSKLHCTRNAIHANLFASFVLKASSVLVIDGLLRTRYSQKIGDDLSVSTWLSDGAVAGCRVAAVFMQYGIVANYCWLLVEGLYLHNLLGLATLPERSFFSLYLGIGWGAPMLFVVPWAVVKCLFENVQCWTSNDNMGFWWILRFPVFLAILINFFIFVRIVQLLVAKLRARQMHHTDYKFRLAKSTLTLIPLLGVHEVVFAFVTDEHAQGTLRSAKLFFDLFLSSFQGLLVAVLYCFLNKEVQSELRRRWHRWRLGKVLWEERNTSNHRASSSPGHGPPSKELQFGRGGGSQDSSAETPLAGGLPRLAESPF
Sequence of human GLP-1R (P43220 24-463): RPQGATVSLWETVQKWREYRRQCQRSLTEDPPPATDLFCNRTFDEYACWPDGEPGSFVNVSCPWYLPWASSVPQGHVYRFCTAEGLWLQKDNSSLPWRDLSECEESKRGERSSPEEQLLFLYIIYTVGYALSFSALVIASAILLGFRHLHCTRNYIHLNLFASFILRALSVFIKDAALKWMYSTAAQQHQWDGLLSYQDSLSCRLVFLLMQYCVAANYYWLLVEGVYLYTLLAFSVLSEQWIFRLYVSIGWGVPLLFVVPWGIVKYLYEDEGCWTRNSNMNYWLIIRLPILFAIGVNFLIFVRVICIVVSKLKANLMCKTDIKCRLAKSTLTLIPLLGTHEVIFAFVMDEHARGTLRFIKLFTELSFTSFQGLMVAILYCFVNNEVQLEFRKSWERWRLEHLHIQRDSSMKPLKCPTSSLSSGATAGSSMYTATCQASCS
Sequence of human GLP-1 receptor (GLP-1R) (P43220 24-463): as above

With `CC[C@H](C)[C@H](NC(=O)[C@H](CC(C)C)NC(=O)[C@H](Cc1ccc(O)cc1)NC(=O)[C@@H](NC(=O)[C@@H](NC(=O)[C@H](Cc1ccccc1)NC(=O)[C@H](CCC(=O)O)NC(=O)C(C)(C)NC(=O)[C@H](CCC(N)=O)NC(=O)[C@H](C)NC(=O)[C@H](CCCCNC(=O)COCCOCCNC(=O)COCCOCCNC(=O)CC[C@H](NC(=O)CCCCCCCCCCCCCCCCCCC(=O)O)C(=O)O)NC(=O)[C@H](CCC(=O)O)NC(=O)[C@H](CC(=O)O)NC(=O)[C@H](CC(C)C)NC(=O)[C@](C)(CC(C)C)NC(=O)[C@@H](NC(=O)[C@H](CO)NC(=O)[C@H](Cc1ccc(O)cc1)NC(=O)[C@H](CC(=O)O)NC(=O)[C@H](CO)NC(=O)[C@@H](NC(=O)[C@](C)(Cc1ccccc1F)NC(=O)[C@@H](NC(=O)CNC(=O)[C@H](CCC(=O)O)NC(=O)C(C)(C)NC(=O)[C@@H](N)Cc1ccc(O)cc1)[C@@H](C)O)[C@@H](C)O)[C@@H](C)CC)[C@@H](C)CC)C(C)C)C(=O)N[C@@H](CCC(=O)O)C(=O)NCC(=O)NCC(=O)N1CCC[C@H]1C(=O)N[C@@H](CO)C(=O)N[C@@H](CO)C(=O)NCC(=O)N[C@@H](C)C(=O)N1CCC[C@H]1C(=O)N1CCC[C@H]1C(=O)N1CCC[C@H]1C(=O)N[C@@H](CO)C(N)=O` [Example 149] (H-Y[Aib]EGT[αMePhe(2-F)]TSDYSI[αMeL]LDEK([AEEA-AEEA-γGlu-C20 diacid])AQ[Aib]EFIVYLIEGGPSSGAPPPS-NH2), the inhibition constant Ki (as a rule, a measure of affinity in units of concentration, obtained from inhibition or displacement) in test [1] amounted to 0.0708 nM; in test [2], 127 nM; in test [4], 26.1 nM. Besides, the EC50 (commonly the concentration that produces a half-maximal response) in test [3] was 0.0916 nM; in test [5] it was 0.0711 nM.

Take `CC[C@H](C)[C@H](NC(=O)[C@H](CC(C)C)NC(=O)[C@H](Cc1ccc(O)cc1)NC(=O)[C@H](CO)NC(=O)[C@@H](NC(=O)[C@H](Cc1ccccc1)NC(=O)[C@H](CCC(=O)O)NC(=O)C(C)(C)NC(=O)[C@H](CCC(N)=O)NC(=O)[C@H](C)NC(=O)[C@H](CCCCNC(=O)COCCOCCNC(=O)COCCOCCNC(=O)CC[C@H](NC(=O)CCCCCCCCCCCCCCCCCCC(=O)O)C(=O)O)NC(=O)[C@H](CCC(=O)O)NC(=O)[C@H](CC(=O)O)NC(=O)[C@H](CC(C)C)NC(=O)[C@](C)(CC(C)C)NC(=O)[C@@H](NC(=O)[C@H](CO)NC(=O)[C@H](Cc1ccc(O)cc1)NC(=O)[C@H](CC(=O)O)NC(=O)[C@H](CO)NC(=O)[C@@H](NC(=O)[C@](C)(Cc1ccccc1F)NC(=O)[C@@H](NC(=O)CNC(=O)[C@H](CCC(=O)O)NC(=O)C(C)(C)NC(=O)[C@@H](N)Cc1ccc(O)cc1)[C@@H](C)O)[C@@H](C)O)[C@@H](C)CC)[C@@H](C)CC)C(=O)N[C@@H](CCC(=O)O)C(=O)NCC(=O)NCC(=O)N1CCC[C@H]1C(=O)N[C@@H](CO)C(=O)N[C@@H](CO)C(=O)NCC(=O)N[C@@H](C)C(=O)N1CCC[C@H]1C(=O)N1CCC[C@H]1C(=O)N1CCC[C@H]1C(=O)N[C@@H](CO)C(N)=O` [Example 150] (H-Y[Aib]EGT[αMePhe(2-F)]TSDYSI[αMeL]LDEK([AEEA-AEEA-γGlu-C20 diacid])AQ[Aib]EFISYLIEGGPSSGAPPPS-NH2): the Ki in test [1] was 0.0649 nM; in test [2] it was 63.2 nM; in test [4], 30.5 nM. Moreover, the 50% effective concentration (EC50) in test [3] came out at 0.0575 nM; in test [5], 0.0511 nM.

Regarding `CC[C@H](C)[C@H](NC(=O)[C@H](CC(C)C)NC(=O)[C@H](Cc1ccc(O)cc1)NC(=O)C(C)(C)NC(=O)[C@@H](NC(=O)[C@H](Cc1ccccc1)NC(=O)[C@H](CCC(=O)O)NC(=O)C(C)(C)NC(=O)[C@H](CCC(N)=O)NC(=O)[C@H](C)NC(=O)[C@H](CCCCNC(=O)COCCOCCNC(=O)COCCOCCNC(=O)CC[C@H](NC(=O)CCCCCCCCCCCCCCCCCCC(=O)O)C(=O)O)NC(=O)[C@H](CCC(=O)O)NC(=O)[C@H](CC(=O)O)NC(=O)[C@H](CC(C)C)NC(=O)[C@](C)(CC(C)C)NC(=O)[C@@H](NC(=O)[C@H](CO)NC(=O)[C@H](Cc1ccc(O)cc1)NC(=O)[C@H](CC(=O)O)NC(=O)[C@H](CO)NC(=O)[C@@H](NC(=O)[C@](C)(Cc1ccccc1F)NC(=O)[C@@H](NC(=O)CNC(=O)[C@H](CCC(=O)O)NC(=O)C(C)(C)NC(=O)[C@@H](N)Cc1ccc(O)cc1)[C@@H](C)O)[C@@H](C)O)[C@@H](C)CC)[C@@H](C)CC)C(=O)N[C@@H](CCC(=O)O)C(=O)NCC(=O)NCC(=O)N1CCC[C@H]1C(=O)N[C@@H](CO)C(=O)N[C@@H](CO)C(=O)NCC(=O)N[C@@H](C)C(=O)N1CCC[C@H]1C(=O)N1CCC[C@H]1C(=O)N1CCC[C@H]1C(=O)N[C@@H](CO)C(N)=O` [Example 152] (H-Y[Aib]EGT[αMePhe(2-F)]TSDYSI[αMeL]LDEK([AEEA-AEEA-γGlu-C20 diacid])AQ[Aib]EFI[Aib]YLIEGGPSSGAPPPS-NH2), the Ki in test [1] came to 0.117 nM; in test [2], 93.4 nM; in test [4], 48 nM. In addition, the EC50 is 0.0915 nM in test [3] and 0.0504 nM in test [5].

Regarding `CC[C@H](C)[C@H](NC(=O)[C@H](CC(C)C)NC(=O)[C@H](Cc1ccc(O)cc1)NC(=O)[C@H](Cc1c[nH]cn1)NC(=O)[C@@H](NC(=O)[C@H](Cc1ccccc1)NC(=O)[C@H](CCC(=O)O)NC(=O)C(C)(C)NC(=O)[C@H](CCC(N)=O)NC(=O)[C@H](C)NC(=O)[C@H](CCCCNC(=O)COCCOCCNC(=O)COCCOCCNC(=O)CC[C@H](NC(=O)CCCCCCCCCCCCCCCCCCC(=O)O)C(=O)O)NC(=O)[C@H](CCC(=O)O)NC(=O)[C@H](CC(=O)O)NC(=O)[C@H](CC(C)C)NC(=O)[C@](C)(CC(C)C)NC(=O)[C@@H](NC(=O)[C@H](CO)NC(=O)[C@H](Cc1ccc(O)cc1)NC(=O)[C@H](CC(=O)O)NC(=O)[C@H](CO)NC(=O)[C@@H](NC(=O)[C@](C)(Cc1ccccc1F)NC(=O)[C@@H](NC(=O)CNC(=O)[C@H](CCC(=O)O)NC(=O)C(C)(C)NC(=O)[C@@H](N)Cc1ccc(O)cc1)[C@@H](C)O)[C@@H](C)O)[C@@H](C)CC)[C@@H](C)CC)C(=O)N[C@@H](CCC(=O)O)C(=O)NCC(=O)NCC(=O)N1CCC[C@H]1C(=O)N[C@@H](CO)C(=O)N[C@@H](CO)C(=O)NCC(=O)N[C@@H](C)C(=O)N1CCC[C@H]1C(=O)N1CCC[C@H]1C(=O)N1CCC[C@H]1C(=O)N[C@@H](CO)C(N)=O` [Example 153] (H-Y[Aib]EGT[αMePhe(2-F)]TSDYSI[αMeL]LDEK([AEEA-AEEA-γGlu-C20 diacid])AQ[Aib]EFIHYLIEGGPSSGAPPPS-NH2; N-terminus assumed), the Ki in test [1] worked out at 0.0578 nM; in test [2], 43.8 nM; in test [4], 22.2 nM. In addition, the EC50 was 0.0904 nM in test [3] and 0.0634 nM in test [5].

For the compound `CC[C@H](C)[C@H](NC(=O)[C@H](CC(C)C)NC(=O)[C@H](Cc1ccc(O)cc1)NC(=O)[C@H](CCC(=O)O)NC(=O)[C@@H](NC(=O)[C@H](Cc1ccccc1)NC(=O)[C@H](CCC(=O)O)NC(=O)C(C)(C)NC(=O)[C@H](CCC(N)=O)NC(=O)[C@H](C)NC(=O)[C@H](CCCCNC(=O)COCCOCCNC(=O)COCCOCCNC(=O)CC[C@H](NC(=O)CCCCCCCCCCCCCCCCCCC(=O)O)C(=O)O)NC(=O)[C@H](CCC(=O)O)NC(=O)[C@H](CC(=O)O)NC(=O)[C@H](CC(C)C)NC(=O)[C@](C)(CC(C)C)NC(=O)[C@@H](NC(=O)[C@H](CO)NC(=O)[C@H](Cc1c[nH]cn1)NC(=O)[C@H](CC(=O)O)NC(=O)[C@H](CO)NC(=O)[C@@H](NC(=O)[C@](C)(Cc1ccccc1F)NC(=O)[C@@H](NC(=O)CNC(=O)[C@H](CCC(=O)O)NC(=O)C(C)(C)NC(=O)[C@@H](N)Cc1ccc(O)cc1)[C@@H](C)O)[C@@H](C)O)[C@@H](C)CC)[C@@H](C)CC)C(=O)N[C@@H](CCC(=O)O)C(=O)NCC(=O)NCC(=O)N1CCC[C@H]1C(=O)N[C@@H](CO)C(=O)N[C@@H](CO)C(=O)NCC(=O)N[C@@H](C)C(=O)N1CCC[C@H]1C(=O)N1CCC[C@H]1C(=O)N1CCC[C@H]1C(=O)N[C@@H](CO)C(N)=O` [Example 154] (H-Y[Aib]EGT[αMePhe(2-F)]TSDHSI[αMeL]LDEK([AEEA-AEEA-γGlu-C20 diacid])AQ[Aib]EFIEYLIEGGPSSGAPPPS-NH2), the Ki was 0.061 nM in test [1], 762 nM in test [2] and 5.64 nM in test [4]. Further, the EC50 in test [3] amounted to 0.0393 nM; in test [5], 0.0266 nM.
